The conditions of this data set: Crystal; DTA.

± gives the expanded uncertainty stated by the source.

As to `Nc1ccc(O)c2c1C(=O)c1c(O)cc(Br)c(N)c1C2=O` [1,5-diaminobromo-4,8-dihydroxyanthraquinone], the Triple point temperature stood at 453.4 ± 1.1 K.
